Patent publication US20110136728A1, “METHODS OF INCREASING BONE FORMATION USING LEPTIN-RELATED PEPTIDES” (priority 2009, published 2011)
Non-standard residues stand in square brackets, D forms with d. Residues, ends and D or L forms follow the SMILES beside them.

Assays:
[1] = system: male C57BL/6J ob/ob mice; assay: Oral delivery (gavage) in ad libitum fed ob/ob mice: body weight, food and water intake, serum glucose, serum osteocalcin; assay type: in vivo, mouse
Protocol: Six week-old male C57BL/6J wild type and ob/ob mice were obtained from Jackson Laboratories (Bar Harbor, Me., USA). The animals were housed individually polycarbonate cages fitted with stainless steel wire lids and air filters, and supported on ventilated racks (Thoren Caging Systems, Hazelton, Pa., USA) in the Albany Medical College Animal Resources Facility. The mice were maintained at a constant temperature (24° C.) with lights on from 07:00 to 19:00, and allowed food and water ad libitum for 6 days following arrival. During the test period, mice were fed ad libitum or calorie restricted to 60% of normal. Water intake was allowed ad libitum.
On day 1 of the study, and on each day thereafter, a water bottle containing 200 ml of water was added to each cage between 09:00 and 10:00 h. Mice fed ad libitum were given 200 g of pelleted rodent diet (Prolab Rat, Mouse, Hamster 3000, St. Louis, Mo.; 22% crude protein, 5% crude fat, 5% fiber, 6% ash, 2.5% additional minerals) between 09:00 and 10:00 h each day. The mice were weighed once daily between 09:00 and 10:00 h on an Acculab V-333 electronic balance (Cole-Parmer, Vernon Hills, Ill., USA). Calorie-restricted wild type and ob/ob mice received 60% of normal daily intake. Twenty four hours later, food and water remaining in the cages was measured to the nearest 0.1 g and 0.1 ml, respectively. To assure fasting glucose levels on days in which blood glucose was measured, food was removed from the cages between 09:00 and 10:00 h, and replaced immediately before the beginning of the dark cycle.
Mouse [D-Leu-4]OB3 was prepared commercially as a C-terminal amide by Bachem (Torrance, Calif., USA). The peptide was dissolved in 0.3% Intravail A3® (Aegis Therapeutics, San Diego, Calif. USA) reconstituted in water, and administered by gavage once daily for 10 days at a concentration of 1 mg/200 μl immediately before the start of the dark cycle. Is has previously been shown that this is the optimum concentration of mouse [D-Leu-4]-OB3 and its related bioactive peptide amides, for regulating energy expenditure, glucose levels, and insulin sensitivity in two genetically obese mouse models (see Rozhayskaya-Arena M. et al., Endocrinology 141:2501-2517 (2000); Grasso P. et al. Regulatory Pep. 101:123-129 (2001); Grasso P. et al., Diabetes 48:2204-2209 (1999), Grasso P. et al., Endocrinology 138:1413-1418 (1997); Grasso P. et al., Regulatory Peptides 85:93-100 (1999); and Grasso P. et al., Diabetes 48:2204-2209 (1999)). Vehicle injected control mice received 200 ul of Intravail A3® only.
Initial blood samples were drawn by snipping the end of the tail of each mouse at the beginning of the study (day 0); subsequent samples were obtained by gently removing the scab. Blood was taken 1 h before the onset of the dark period at the beginning of the study, and after 2, 4, 6, 8, and 10 days of treatment. The blood was applied to a test strip, and glucose levels were measured with a Glucometer Elite glucose meter (Bayer, Elkhart, Ind., USA).
At the end of the study, the mice were anesthetized with isoflurane (5%) and exsanguinated by cardiac puncture. Euthanasia was confirmed by cervical dislocation. The blood was collected in sterile nonheparinized plastic centrifuge tubes and allowed to stand at room temperature for 1 h. The clotted blood was rimmed from the walls of the tubes with sterile wooden applicator sticks. Individual serum samples were prepared by centrifugation for 30 min at 2600×g in an Eppendorf 5702R, A-4-38 rotor (Eppendorf North America, Westbury, N.Y., USA). The serum samples in each experimental group (n=6) were pooled and stored frozen until assayed for osteocalcin content.
Serum osteocalcin in the pooled samples was assayed in triplicate with a mouse osteocalcin ELISA kit obtained from Biomedical Technologies, Inc. (Stoughton, Mass., USA) according to the instructions supplied by the manufacturer. […]

[2] = system: ob/ob mouse model; assay: Earlier study of OB3 and D-amino acid-substituted OB3 analogs: body weight gain, food and water intake, blood glucose; assay type: in vivo
Excerpt: Single-point D-amino acid substitution was used to study the structure-function relationships of each amino acid residue in OB3, and to increase its efficacy. The restricted domain represented by OB3 contains a functional epitope, which has the ability to mimic at least some of the effects of leptin on energy balance and glucose homeostasis.
The design of peptide ligands involved the introduction of conformational constraints into native sequences by techniques that include, but are not limited to, D-amino acid substitution or cyclization. (Hruby and Bonner, Methods Mol Biol. 35:201-40 (1994)). Systematic replacement of L-amino acids by their D-amino acid isoforms was used to determine the stereostructural requirements of specific residues in a peptide for peptide-receptor interaction, and to assess the contribution of certain secondary structural motifs, e.g., α-helix or β-turn, to the bioactivity of the peptide. (Hruby, Biopolymers 33(7):1073-82 (1993) and Hruby, Life Sci. 52(10):845-55 (1993)). This approach increased peptide resistance to enzymatic hydrolysis, and to enhance the properties of biologically active peptides, including receptor binding, functional potency, and duration of action. (See Fauchere et al., Adv. Drug Res., 23:127-139 (1992); Doherty et al., J. Med. Chem., 36:2585-2594 (1993); Kirby et al., J. Med. Chem., 36:3802-3808 (1993); Morita et al., FEBS Lett., 353:84-88 (1994)).
(See Rozhayskaya-Arena M, et al., Endocrinology 141:2501-2517 (2000); Grasso P et al., Regulatory Pep. 101:123-129 (2001)).

[3] = system: ob/ob mouse model; conditions: Grasso et al., Regu. Pept. 101:123-129 (2001); cited from earlier work
[4] = ob/ob, ad libitum fed, 1 mg/day, 10 days, gavage in Intravail
[5] = ob/ob, ad libitum fed, 10 days gavage
[6] = ob/ob, ad libitum fed, oral delivery

CC(C)C[C@@H](NC(=O)[C@H](CO)NC(=O)[C@H](CS)NC(=O)[C@@H](N)CO)C(=O)N1CCC[C@H]1C(=O)N[C@@H](CCC(N)=O)C(=O)N[C@H](C(N)=O)[C@@H](C)O [mouse [D-Leu-4]-OB3] (H-SCS[dL]PQT-NH2; N-terminus assumed)
serum osteocalcin relative to wild type control mice ([1]; ob/ob mice): significantly elevated serum osteocalcin to levels higher than those seen in wild type control mice
Body weight (% of initial) [1, 4]: 96.3 ± 0.4 % of initial
Final body weight [1, 4]: 34.2 ± 0.9 g
Serum osteocalcin [1, 4]: 300.5 ± 7.0 ng/mL
daily food intake compared to Intravail alone [1, 5]: significantly (P<0.001) less
daily water consumption compared to Intravail treated counterparts [1, 5]: significantly (P<0.05) less water per day
serum glucose after treatment [1, 5]: significantly (P<0.001) reduced serum glucose levels, but not to normal levels
loss of initial body weight ([1]; ob/ob, ad libitum fed, after 10 days gavage): 3.7%
Final serum glucose ([1]; ob/ob, ad libitum fed, after 10 days, 1 mg/day gavage in Intravail): 380.5 ± 24.3 mg/dL
Initial serum glucose ([1]; ob/ob, ad libitum fed, day 0): 503.9 ± 19.6 mg/dL
Initial body weight ([1]; ob/ob, ad libitum fed, day 0, 1 mg/day, 10 days, gavage in Intravail): 35.5 ± 0.8 g
reduction of body weight gain [1, 6]: 11.6%
reduction of food intake [1, 6]: 16.5%
reduction of serum glucose [1, 6]: 24.4%
reduction of water intake [1, 6]: 22.4%
effectiveness compared to the other D-amino acid-substituted analogs ([2]; compared to OB3, in most of the parameters measured): more effective than the other D-amino acid-substituted analogs
Water intake ([2]; mouse, in vivo): significantly reduced water intake
anorexigenic activity compared with OB3 ([2]; mouse, in vivo): greater anorexigenic activity than OB3
antihyperglycemic effect and its time course ([2]; mouse, in vivo): lowered blood glucose to levels seen in nondiabetic wild type mice within two days of peptide treatment
potency in reducing body weight gain relative to native OB3 ([2]; mouse, in vivo): 2.6 fold
tissue sensitivity to insulin [3]: increases tissue sensitivity to insulin
